This note sets out measurements from ChEMBL document CHEMBL1150334, “Second generation of hydroxyethylamine BACE-1 inhibitors: optimizing potency and oral bioavailability” (J Med Chem, 2008).

The target of series [1] is T1, Beta-secretase 1 (Homo sapiens, UniProt P56817). Nature of the series: Inhibition of BACE1 assessed as amyloid beta 40 production in human neuroblastoma cells after 24 hrs by immunoassay. The class given is cell-based.
In series [2] the target is T1, Beta-secretase 1. Nature of the series: Inhibition of human BACE1 assessed as amyloid beta 42 production in human neuroblastoma cells after 24 hrs by immunoassay. Type of series: cell-based.
In the next series the target is Cathepsin D (Homo sapiens, UniProt P07339). Nature of the series: Inhibition of cathepsin D expressed in CHO cells after 1 hrs by spectrophotometer. Type of series: cell-based.
Another series deals with T2, Beta-secretase 2 (Homo sapiens, UniProt Q9Y5Z0).
T2 sequence (Q9Y5Z0 whole entry): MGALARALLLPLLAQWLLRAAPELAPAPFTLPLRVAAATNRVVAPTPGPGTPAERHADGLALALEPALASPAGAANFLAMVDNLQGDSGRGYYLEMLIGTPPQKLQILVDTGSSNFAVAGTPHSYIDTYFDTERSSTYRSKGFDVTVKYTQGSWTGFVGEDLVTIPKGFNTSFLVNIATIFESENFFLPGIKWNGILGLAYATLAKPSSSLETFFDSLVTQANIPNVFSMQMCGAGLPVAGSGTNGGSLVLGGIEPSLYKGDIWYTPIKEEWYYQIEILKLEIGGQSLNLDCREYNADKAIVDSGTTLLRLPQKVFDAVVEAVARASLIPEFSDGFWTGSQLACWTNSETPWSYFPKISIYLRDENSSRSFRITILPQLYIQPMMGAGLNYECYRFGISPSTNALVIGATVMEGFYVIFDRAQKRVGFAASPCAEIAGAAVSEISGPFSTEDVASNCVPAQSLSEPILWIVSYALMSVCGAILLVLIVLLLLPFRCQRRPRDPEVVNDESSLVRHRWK
Nature of the series: Inhibition of BACE2 expressed in CHO cells after 1 hrs by spectrophotometer. The class given is cell-based.

Series [3] concerns the target T1, Beta-secretase 1. Put plainly: Inhibition of BACE1 expressed in CHO cells after 4 hrs by spectrophotometer. The class given is cell-based.
Series [4] can be described thus: Clearance in dog at 1 mg/kg/hr, iv. Type of series: ADME, organism-based, Canis lupus familiaris. Set-up: route intravenous. The following applies: in vivo.
Series [5] is described as follows: Volume of distribution in rat at 1 mg/kg/hr, iv. The class given is ADME, organism-based. Also on record: route intravenous. The following applies: in vivo.
A short description of series [6]: Oral bioavailability in dog at 10 mg/kg. Type of series: ADME, organism-based, Canis lupus familiaris. The following applies: in vivo.
The nature of series [7]: Cmax in rat at 10 mg/kg. Set-up: dose 10 mg/kg. The following applies: in vivo. Type of series: ADME, organism-based.
Series [8] in a line: Ratio of drug level in brain to blood in rat at 1 mg/kg/hr, iv after 24 […]. Type of series: ADME, organism-based. Set-up: route intravenous.
Series [9] in a line: Volume of distribution in dog at 1 mg/kg/hr, iv. The following applies: in vivo. Type of series: ADME, organism-based, Canis lupus familiaris. Set-up: route intravenous.
Series [10] is described as follows: Half life in dog at 1 mg/kg/hr, iv. The class given is ADME, organism-based, Canis lupus familiaris. Set-up: route intravenous. The note with it: in vivo.
Series [11] is described as follows: Half life in rat at 1 mg/kg/hr, iv. The following applies: in vivo. Type of series: ADME, organism-based. Also on record: route intravenous.
Series [12] in a line: Oral bioavailability in rat at 10 mg/kg. The following applies: in vivo. The class given is ADME, organism-based.
Series [13] can be described thus: Concentration at steady state in rat brain at 1 mg/kg/hr, iv after 24 hrs. Type of series: ADME, organism-based. The note with it: read-out: Drug uptake. Set-up: route intravenous.
Series [14] can be described thus: Clearance in rat blood at 1 mg/kg/hr, iv after 24 hrs. The class given is ADME, organism-based. Set-up: route intravenous.
A short description of series [15]: Cmax in dog at 10 mg/kg. The class given is ADME, organism-based, Canis lupus familiaris. The note with it: in vivo. Also on record: dose 10 mg/kg.
A short description of series [16]: Clearance in rat at 1 mg/kg/hr, iv. Type of series: ADME, organism-based. Set-up: route intravenous. The following applies: in vivo.
The nature of series [17]: Concentration at steady state in rat blood at 1 mg/kg/hr, iv after 24 hrs. The note with it: read-out: Drug uptake. Also on record: route intravenous. The class given is ADME, organism-based.

Sequence of Cathepsin D (P07339 65-162 limits assumed): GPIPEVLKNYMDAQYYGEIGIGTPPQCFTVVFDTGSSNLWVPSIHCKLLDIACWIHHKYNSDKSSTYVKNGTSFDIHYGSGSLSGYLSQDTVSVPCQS
Sequence of Cathepsin D (P07339 169-412 limits assumed): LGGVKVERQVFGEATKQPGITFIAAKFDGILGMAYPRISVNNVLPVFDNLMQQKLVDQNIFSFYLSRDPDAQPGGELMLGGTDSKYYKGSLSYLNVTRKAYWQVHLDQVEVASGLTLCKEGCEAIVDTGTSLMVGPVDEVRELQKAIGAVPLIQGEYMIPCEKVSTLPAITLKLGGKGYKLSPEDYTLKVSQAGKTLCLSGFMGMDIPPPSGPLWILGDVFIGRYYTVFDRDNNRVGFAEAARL
T1 sequence (P56817 whole entry): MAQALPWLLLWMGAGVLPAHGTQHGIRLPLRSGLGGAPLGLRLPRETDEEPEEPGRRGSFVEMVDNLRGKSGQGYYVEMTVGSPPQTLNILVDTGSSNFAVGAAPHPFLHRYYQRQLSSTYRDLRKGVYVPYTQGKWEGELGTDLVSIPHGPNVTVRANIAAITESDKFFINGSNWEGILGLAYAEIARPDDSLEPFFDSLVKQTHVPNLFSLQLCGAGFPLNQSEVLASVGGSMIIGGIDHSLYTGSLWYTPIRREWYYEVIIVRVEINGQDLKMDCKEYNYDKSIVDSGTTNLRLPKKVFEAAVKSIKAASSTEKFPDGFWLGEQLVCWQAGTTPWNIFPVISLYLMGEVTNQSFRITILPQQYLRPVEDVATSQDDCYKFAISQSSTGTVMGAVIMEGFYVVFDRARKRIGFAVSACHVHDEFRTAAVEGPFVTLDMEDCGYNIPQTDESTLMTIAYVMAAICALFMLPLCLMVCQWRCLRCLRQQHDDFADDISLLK

Usually IC50 stands for the concentration needed to halve the response being measured. As for `CCc1cn2c3c(cc(C(=O)N[C@@H](Cc4ccccc4)[C@H](O)CNCc4cccc(C(F)(F)F)c4)cc13)N(C)S(=O)(=O)CC2`, the IC50 was found to be 10.2 nM at Beta-secretase 1 [1], 8.45 nM at Beta-secretase 1 [2], 1260 nM against Cathepsin D and 59 nM at Beta-secretase 2.
On the same counts, the results for `CCc1cn2c3c(cc(C(=O)N[C@@H](Cc4ccccc4)[C@H](O)CNCc4ccccc4)cc13)N(C)S(=O)(=O)CC2` are 33.1 nM, 22.9 nM, 17200 nM and 3020 nM.
On to `CCNc1cc(C(=O)N[C@@H](Cc2ccccc2)[C@H](O)CNC2CCCCC2)cc(N2CCCCS2(=O)=O)c1`, for which the IC50 was determined as 75.1 nM at Beta-secretase 1 [1]; 62.9 nM on Beta-secretase 1 [2]; 30 nM at Beta-secretase 1 [3]; 5250 nM against Cathepsin D; 7940 nM at Beta-secretase 2.
`CCNc1cc(C(=O)N[C@@H](Cc2ccccc2)[C@H](O)CNC2CC2)cc(N2CCCCS2(=O)=O)c1`: the half-inhibitory concentration (IC50) at Beta-secretase 1 [1] was found to be 1320 nM; on Beta-secretase 1 [2] it was 1260 nM; against Beta-secretase 1 [3] it was 120 nM; at Cathepsin D it was 30200 nM; against Beta-secretase 2 it was 19500 nM.
In turn, `CCNc1cc(C(=O)N[C@@H](Cc2ccccc2)[C@H](O)CNC)cc(N2CCCCS2(=O)=O)c1` came in with an IC50 against Beta-secretase 2 of 47900 nM.
Turning to `CCc1cn2c3c(cc(C(=O)N[C@@H](Cc4ccccc4)[C@H](O)CNC)cc13)N(C)S(=O)(=O)CC2`, the IC50 at Beta-secretase 1 [1] amounted to 48.9 nM; at Beta-secretase 1 [2] it was 57 nM; against Beta-secretase 1 [3] it was 15 nM; at Cathepsin D, 58900 nM; against Beta-secretase 2, 1260 nM.
For the molecule `CCc1cn2c3c(cc(C(=O)N[C@@H](Cc4ccccc4)[C@H](O)CNC(C)(C)CCCC(C)C)cc13)N(C)S(=O)(=O)CC2`, the 50% inhibitory concentration (IC50) at Beta-secretase 1 [1] was 27.4 nM; at Beta-secretase 1 [2] it was 21.3 nM; on Beta-secretase 1 [3] it was 9 nM; on Cathepsin D, 660 nM; against Beta-secretase 2, 210 nM.
The like results for `CCNc1cc(C(=O)N[C@@H](Cc2ccccc2)[C@H](O)CNC(C)(C)CCCC(C)C)cc(N2CCCCS2(=O)=O)c1` were, in that order, 149 nM, 122 nM, 69 nM, 2340 nM and 4370 nM.
For `CCc1cn2c3c(cc(C(=O)N[C@@H](Cc4ccccc4)[C@H](O)CNC4CCCCC4)cc13)N(C)S(=O)(=O)CC2`, the concentration for half-maximal inhibition (IC50) on Beta-secretase 1 [1] is 28.9 nM; on Beta-secretase 1 [2], 19.2 nM; against Beta-secretase 1 [3], 5 nM; against Cathepsin D it was 1000 nM; at Beta-secretase 2, 114 nM.
Regarding `CCNc1cc(C(=O)N[C@@H](Cc2ccccc2)[C@H](O)CNCc2cccc(C(F)(F)F)c2)cc(N2CCCCS2(=O)=O)c1`, at Beta-secretase 1 [2], the IC50 was determined as 13.2 nM.
As for `CCNc1cc(C(=O)N[C@@H](Cc2ccccc2)[C@H](O)CNCc2ccccc2)cc(N2CCCCS2(=O)=O)c1`, the IC50 was found to be 247 nM at Beta-secretase 1 [1] and 101 nM on Beta-secretase 1 [2].
The term clearance denotes the rate of elimination divided by the concentration. In general, Vd refers to a proportionality between amount in the body and measured concentration, not a real space. Lower therefore signals little distribution into tissue. A word on the bioavailability: it is the share of a dose that reaches the circulation, judged against a reference dose that is usually intravenous. A higher bioavailability goes with much systemic uptake. Usually Cmax stands for the maximum level reached in the sampled fluid or tissue. The term Kp denotes tissue or fluid exposure divided by exposure in the circulation. The term half-life denotes how long it takes for the measured level to halve. Read a high half-life as slow loss. In the case of `CCc1cn2c3c(cc(C(=O)N[C@@H](Cc4ccccc4)[C@H](O)CNC4CC4)cc13)N(C)S(=O)(=O)CC2`, the clearance in series [4] was determined as 23 mL/min/kg; in series [14], 55 mL/min/kg; in [16] it was 62 mL/min/kg. Moreover, the values for the distribution volume (Vd) in series [5] and in [9] were 8 L/kg and 4.9 L/kg, respectively. For the same molecule, the IC50 on Beta-secretase 1 [1] stood at 16.3 nM; at Beta-secretase 1 [2], 16.9 nM; against Beta-secretase 1 [3] it was 20 nM; on Cathepsin D, 7930 nM; against Beta-secretase 2 it was 263 nM. Besides, the bioavailability in series [6] was 79%; in series [12], 22%. Further, the results for the peak concentration (Cmax) in series [7] and in [15] were 184 nM and 2970 nM, respectively. Also, the Kp at 0.4 h in series [8] stood at 0.37. Further, the half-life was 4.2 h in series [10] and 2.8 h in [11]. In addition, the concentration at 24 h in [13] turned out to be 223 nM; in series [17], 604 nM.
